Results reported in patent US6136801A, “Therapeutic agent with quantitative consumption marker” (U. D. Testing, Inc., priority 1998, dated 2000).

What was measured:
[1] = Normalized urine compliance marker (diazepam) concentration in patients, FPIA, normalized to urine SG 1.030 and 154 lbs body weight; settings: diazepam 2 mg p.o. q12h
[2] = Renal excretion rates as a function of urine volume production rate; assay type: in vivo, human
Protocol: This constancy has now been experimentally verified by examining the renal excretion rates of methadone, benzodiazepines, other drugs and creatinine and other endogenous metabolites as a function of urine volume production rate. For example, sequential, complete and timed (1-8 hours holding periods) aliquots of urine for 12 compliant control subjects were collected over 24 to 72 hour periods. For each urine aliquot, urine volume production rate (ml/min), specific gravity and creatinine concentration (mg/dl) (as the tested substance) were determined.

| SMILES | MEAN NU FOR […] ([1]; Experiment #1, patient P-1, methadone 30 mg p.o. q12h) | MEAN NU FOR […] ([1]; Experiment #1, patient P-3, methadone 30 mg p.o. q12h) | renal excretion rates during a typical day [2] |
| --- | --- | --- | --- |
| CN1C(=O)CN=C(c2ccccc2)c2cc(Cl)ccc21 [diazepam] | 500 (SD 90, CV 18%) | 499 (SD 73, CV 15%) |  |
| CCC(=O)C(CC(C)N(C)C)(c1ccccc1)c1ccccc1 (stereo not drawn) [methadone] |  |  | relatively constant |
